From PubChem BioAssay AID192 (DTP/NCI, 2004)
Values joined by “and” are separate entries in the source; they are usually repeats but may differ in a detail not shown here. Identical values can stand only once. Toxic doses and inconclusive results are not listed. How the source made its calls: active means survival T/C of 150% or more; inactive means T/C below 125% in these data.

System: BDF1 mice, B16 melanoma ip, median survival T/C
Experiment: NCI In Vivo Anticancer Drug Screen. Data for tumor model B16 Melanoma (intraperitoneal) in B6D2F1 (BDF1) mice
Conditions: endpoint: median survival time, higher = longer survival
Procedure, shortened: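 Tumor-bearing mice received test compound or vehicle. Survival or tumor size was then measured in both groups. The treated-group figure was divided by the control-group figure.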

[1] = dose: 100.0 mg/kg/injection, schedule: Q01DX009 (ip), vehicle: Klucel (hydroxypropylcellulose) (HPC)
[2] = dose: 200.0 mg/kg/injection, schedule: Q01DX009 (ip), vehicle: Klucel (hydroxypropylcellulose) (HPC)
[3] = dose: 6.25 mg/kg/injection, schedule: Q01DX009 (ip), vehicle: Klucel (hydroxypropylcellulose) (HPC)
[4] = dose: 12.5 mg/kg/injection, schedule: Q01DX009 (ip), vehicle: Klucel (hydroxypropylcellulose) (HPC)
[5] = dose: 25.0 mg/kg/injection, schedule: Q01DX009 (ip), vehicle: Klucel (hydroxypropylcellulose) (HPC)
[6] = dose: 100.0 mg/kg/injection, schedule: Q04DX003 (ip), vehicle: Klucel (hydroxypropylcellulose) (HPC)
[7] = dose: 200.0 mg/kg/injection, schedule: Q04DX003 (ip), vehicle: Klucel (hydroxypropylcellulose) (HPC)
[8] = dose: 50.0 mg/kg/injection, schedule: Q01DX009 (ip), vehicle: saline
[9] = dose: 12.5 mg/kg/injection, schedule: Q04DX003 (ip), vehicle: Klucel (hydroxypropylcellulose) (HPC)
[10] = dose: 25.0 mg/kg/injection, schedule: Q04DX003 (ip), vehicle: Klucel (hydroxypropylcellulose) (HPC)
[11] = dose: 50.0 mg/kg/injection, schedule: Q01DX009 (ip), vehicle: Klucel (hydroxypropylcellulose) (HPC)
[12] = dose: 50.0 mg/kg/injection, schedule: Q04DX003 (ip), vehicle: Klucel (hydroxypropylcellulose) (HPC)
[13] = dose: 100.0 mg/kg/injection, schedule: Q01DX009 (ip), vehicle: saline with Tween-80
[14] = dose: 3.12 mg/kg/injection, schedule: Q01DX009 (ip), vehicle: Klucel (hydroxypropylcellulose) (HPC)
[15] = dose: 12.5 mg/kg/injection, schedule: Q01DX009 (ip), vehicle: other

Measured: T/C

Cc1nc2c(=O)n(C)c(=O)n(C)c2n1C
inactive: dose: 50.0 mg/kg/injection, schedule: Q04DX003 (ip), vehicle: saline with Tween-80 105 % of control | dose: 100.0 mg/kg/injection, schedule: Q04DX003 (ip), vehicle: saline with Tween-80 105 % of control | dose: 200.0 mg/kg/injection, schedule: Q04DX003 (ip), vehicle: saline with Tween-80 105 % of control

CCOc1ccc(N=Nc2ccc(N)cc2N)cc1
inactive: [1] 101 % of control | [2] 106 % of control | dose: 400.0 mg/kg/injection, schedule: Q01DX009 (ip), vehicle: Klucel (hydroxypropylcellulose) (HPC) 108 % of control

CCNCc1cc(Nc2cc(C)nc(/N=C(\N)Nc3ccc(Cl)c(Cl)c3)n2)ccc1OC
inactive: [3] 100 % of control | [4] 102 % of control | [5] 91 % of control

CCc1ccc(NC(=O)Nc2ccccc2C)cc1
inactive: [6] 96 % of control | [7] 96 % of control | dose: 400.0 mg/kg/injection, schedule: Q04DX003 (ip), vehicle: Klucel (hydroxypropylcellulose) (HPC) 100 % of control

CC(=O)OCC1OC(n2ccc(N)nc2=O)C(OC(C)=O)C1OC(C)=O (stereo not drawn)
inactive: dose: 12.5 mg/kg/injection, schedule: Q01DX009 (ip), vehicle: saline 105 % of control | dose: 25.0 mg/kg/injection, schedule: Q01DX009 (ip), vehicle: saline 105 % of control | [8] 105 % of control | dose: 100.0 mg/kg/injection, schedule: Q01DX009 (ip), vehicle: saline 109 % of control

NC(=O)C(N)=O
inactive: [1] 103 % of control | [2] 96 % of control

O=C(CBr)c1ccc(-c2ccccc2)cc1
inactive: [9] 88 % of control | [10] 102 % of control | [11] 93 % of control | [12] 94 % of control

O=C(COc1ccc(Cl)cc1Cl)Nc1ccc(F)cc1
inactive: dose: 25.0 mg/kg/injection, schedule: Q01DX009 (ip), vehicle: saline with Tween-80 110 % of control | dose: 50.0 mg/kg/injection, schedule: Q01DX009 (ip), vehicle: saline with Tween-80 91 % of control | [13] 86 % of control

COc1cc([C@@H]2c3cc4c(cc3[C@H](O)[C@H]3COC(=O)[C@@H]23)OCO4)cc(OC)c1OC
inactive: dose: 6.0 mg/kg/injection, schedule: Q01DX009 (ip), vehicle: Klucel (hydroxypropylcellulose) (HPC) 105 % of control | dose: 12.0 mg/kg/injection, schedule: Q01DX009 (ip), vehicle: Klucel (hydroxypropylcellulose) (HPC) 113 % of control | dose: 24.0 mg/kg/injection, schedule: Q01DX009 (ip), vehicle: Klucel (hydroxypropylcellulose) (HPC) 113 % of control

CCO/C=C1\SC(=S)N(c2cccc(O)c2)C1=O
inactive: [5] 102 % of control | [11] 102 % of control | [1] 101 % of control

Cc1ccc2c(ccc(/C=C\c3cc(C)c4cccnc4c3O)[n+]2C)c1
inactive: dose: 1.56 mg/kg/injection, schedule: Q01DX009 (ip), vehicle: saline 95 % of control | dose: 3.13 mg/kg/injection, schedule: Q01DX009 (ip), vehicle: saline 95 % of control | dose: 6.25 mg/kg/injection, schedule: Q01DX009 (ip), vehicle: saline 91 % of control

CC(=O)OCC(OC(C)=O)C(OC(C)=O)C(C#N)OC(C)=O (stereo not drawn)
inactive: [9] 100 % of control | [10] 95 % of control | [12] 97 % of control

CC1=C(c2cc3ccccc3c3ccccc23)CCCC1
inactive: [13] 90 % of control | dose: 200.0 mg/kg/injection, schedule: Q01DX009 (ip), vehicle: saline with Tween-80 88 % of control | dose: 400.0 mg/kg/injection, schedule: Q01DX009 (ip), vehicle: saline with Tween-80 91 % of control

O=CCC(O)C(O)C(O)CO (stereo not drawn)
inactive: dose: 300.0 mg/kg/injection, schedule: Q01DX009 (ip), vehicle: suspension in saline 104 % of control | dose: 600.0 mg/kg/injection, schedule: Q01DX009 (ip), vehicle: suspension in saline 100 % of control | dose: 1200.0 mg/kg/injection, schedule: Q01DX009 (ip), vehicle: suspension in saline 100 % of control | dose: 1800.0 mg/kg/injection, schedule: Q01DX009 (ip), vehicle: suspension in saline 101 % of control

C=C(Cl)C(=NC(C)(C)C)Nc1ccccc1C
inactive: [14] 99 % of control | [3] 86 % of control | [4] 92 % of control | [5] 102 % of control

CC[n+]1c(C)sc2cc3c(cc21)OCO3
inactive: dose: 25.0 mg/kg/injection, schedule: Q01DX009 (ip), vehicle: carboxymethylcellulose (CMC) 108 % of control | dose: 50.0 mg/kg/injection, schedule: Q01DX009 (ip), vehicle: carboxymethylcellulose (CMC) 106 % of control

Cc1[nH]c(=O)[nH]c(=O)c1C
inactive: [12] 88 % of control | [1] 88 % of control | [6] 97 % of control | [2] 91 % of control | [7] 91 % of control

CCOC(=O)C(C#N)N=O (stereo not drawn)
inactive: [8] 111 % of control | dose: 50.0 mg/kg/injection, schedule: Q04DX003 (ip), vehicle: saline 106 % of control | dose: 100.0 mg/kg/injection, schedule: Q04DX003 (ip), vehicle: saline 113 % of control

CN(C)c1ccc(C(=C2C=CC(=[N+](C)C)C=C2)c2ccc(N(C)C)cc2)cc1 (tested in a mixture with another compound)
inactive: dose: 0.31 mg/kg/injection, schedule: Q01DX009 (ip), vehicle: saline with Tween-80 123 % of control | dose: 0.62 mg/kg/injection, schedule: Q01DX009 (ip), vehicle: saline with Tween-80 109 % of control | dose: 1.25 mg/kg/injection, schedule: Q01DX009 (ip), vehicle: saline with Tween-80 104 % of control | dose: 2.5 mg/kg/injection, schedule: Q01DX009 (ip), vehicle: saline with Tween-80 116 % of control

O=C1Nc2ccccc2/C1=C\c1ccccc1O
inactive: dose: 1.56 mg/kg/injection, schedule: Q01DX009 (ip), vehicle: Klucel (hydroxypropylcellulose) (HPC) 106 % of control | [14] 106 % of control | [3] 91 % of control | [4] 105 % of control | [5] 89 % of control

CCCCCCCCCCCCCCCC(=O)N(C(C)CCCN(CC)CC)C(C)CCCN(CC)CC (stereo not drawn)
inactive: dose: 3.13 mg/kg/injection, schedule: Q01DX009 (ip), vehicle: other 91 % of control | [15] 92 % of control

CN(N=O)C(=O)N[C@@H](C=O)[C@@H](O)[C@H](O)[C@H](O)CO
inactive: dose: 12.5 mg/kg/injection, schedule: Q01DX009 (ip), vehicle: citric acid 105 % of control | [15] 109 % of control and 117 % of control (2×) | dose: 25.0 mg/kg/injection, schedule: Q01DX009 (ip), vehicle: citric acid 106 % of control | dose: 25.0 mg/kg/injection, schedule: Q01DX009 (ip), vehicle: other 105 % of control and 118 % of control and 124 % of control | dose: 37.5 mg/kg/injection, schedule: Q04DX003 (ip), vehicle: saline 90 % of control and 115 % of control | dose: 50.0 mg/kg/injection, schedule: Q01DX009 (ip), vehicle: citric acid 117 % of control | dose: 75.0 mg/kg/injection, schedule: Q04DX003 (ip), vehicle: saline 118 % of control | dose: 150.0 mg/kg/injection, schedule: Q04DX003 (ip), vehicle: saline 116 % of control | dose: 300.0 mg/kg/injection, schedule: Q04DX003 (ip), vehicle: saline 45 % of control and 118 % of control
